# Reference: the OPERA property sets (Mansouri et al. 2018)
row,Compound,logP
1,CN(C)C(=O)NS(=O)(=O)Cc1ccccc1,0.54
2,NC(=O)NS(=O)(=O)c1cccnc1,-0.65
3,CNC(=O)NS(=O)(=O)c1cccnc1,-0.45
4,CNC(=O)N(C)S(=O)(=O)Cc1ccccc1,1.18
5,CNC(=O)N(C)S(=O)(=O)c1cccnc1,0.42
6,CNC(=O)NS(=O)(=O)Cc1ccccc1,0.54

# Results, then the compound that gave them:
row,logP,Compound
1,1.95,CC(C)(C)NC(=O)NS(=O)(=O)c1ccccc1
2,0.28,CN(C)C(=O)NS(=O)(=O)c1ccccc1
3,1.34,CC(C)NC(=O)NS(=O)(=O)c1ccccc1
4,0.99,CCN(CC)C(=O)NS(=O)(=O)c1ccccc1
5,1.44,CCCNC(=O)NS(=O)(=O)c1ccccc1
6,0.44,CNC(=O)NS(=O)(=O)c1ccccc1
7,0.9,CCNC(=O)NS(=O)(=O)c1ccccc1
8,0.28,NC(=O)NS(=O)(=O)c1ccccc1
